In patent US9975907B2, “Pyrimidinones as PI3K inhibitors” (Incyte Corporation, priority 2009, dated 2018):
Structures can show the parent of a compound that is named as a salt.

Target: PI3Kδ (p110δ/p85α) (Homo sapiens (Human), UniProt O00329)
Test: PI3Kδ Scintillation Proximity Assay (Assay A3)
Assay type: biochemical
Conditions: column b, Assay A3 (SPA), 20 μM ATP
Description: [γ-^33P]ATP (10 mCi/mL) was purchased from Perkin-Elmer (Waltham, Mass.). Lipid kinase substrate, D-myo-Phosphatidylinositol 4,5-bisphosphate (PtdIns(4,5)P2)D (+)-sn-1,2-di-O-octanoylglyceryl, 3-O-phospho linked (PIP2), CAS 204858-53-7, was purchased from Echelon Biosciences (Salt Lake City, Utah). PI3Kδ (p110δ/p85α) was purchased from Millipore (Bedford, Mass.). ATP, MgCl2, DTT, EDTA, MOPS and CHAPS were purchased from Sigma-Aldrich (St. Louis, Mo.). Wheat Germ Agglutinin (WGA) YSi SPA Scintillation Beads was purchased from GE healthcare life sciences (Piscataway, N.J.).
The kinase reaction was conducted in polystyrene 384-well matrix white plate from Thermo Fisher Scientific in a final volume of 25 μL. Inhibitors were first diluted serially in DMSO and added to the plate wells before the addition of other reaction components. The final concentration of DMSO in the assay was 0.5%. The PI3K assays were carried out at room temperature in 20 mM MOPS, pH 6.7, 10 mM MgCl2, 5 mM DTT and CHAPS 0.03%. Reactions were initiated by the addition of ATP, the final reaction mixture consisted of 20 μM PIP2, 20 μM ATP, 0.2 μCi [γ-^33P] ATP, 4 nM PI3Kδ. Reactions were incubated for 210 min and terminated by the addition of 40 μL SPA beads suspended in quench buffer: 150 mM potassium phosphate pH 8.0, 20% glycerol. 25 mM EDTA, 400 μM ATP. The final concentration of SPA beads was 1.0 mg/mL. After the plate sealing, plates were shaken overnight at room temperature and centrifuged at 1800 rpm for 10 minutes, the radioactivity of the product was determined by scintillation counting on Topcount (Perkin-Elmer). IC50 determination was performed by fitting the curve of percent control activity versus the log of the inhibitor concentration using the GraphPad Prism 3.0 software.

Sequence of PI3Kδ (p110δ/p85α) (O00329 whole entry, species assumed): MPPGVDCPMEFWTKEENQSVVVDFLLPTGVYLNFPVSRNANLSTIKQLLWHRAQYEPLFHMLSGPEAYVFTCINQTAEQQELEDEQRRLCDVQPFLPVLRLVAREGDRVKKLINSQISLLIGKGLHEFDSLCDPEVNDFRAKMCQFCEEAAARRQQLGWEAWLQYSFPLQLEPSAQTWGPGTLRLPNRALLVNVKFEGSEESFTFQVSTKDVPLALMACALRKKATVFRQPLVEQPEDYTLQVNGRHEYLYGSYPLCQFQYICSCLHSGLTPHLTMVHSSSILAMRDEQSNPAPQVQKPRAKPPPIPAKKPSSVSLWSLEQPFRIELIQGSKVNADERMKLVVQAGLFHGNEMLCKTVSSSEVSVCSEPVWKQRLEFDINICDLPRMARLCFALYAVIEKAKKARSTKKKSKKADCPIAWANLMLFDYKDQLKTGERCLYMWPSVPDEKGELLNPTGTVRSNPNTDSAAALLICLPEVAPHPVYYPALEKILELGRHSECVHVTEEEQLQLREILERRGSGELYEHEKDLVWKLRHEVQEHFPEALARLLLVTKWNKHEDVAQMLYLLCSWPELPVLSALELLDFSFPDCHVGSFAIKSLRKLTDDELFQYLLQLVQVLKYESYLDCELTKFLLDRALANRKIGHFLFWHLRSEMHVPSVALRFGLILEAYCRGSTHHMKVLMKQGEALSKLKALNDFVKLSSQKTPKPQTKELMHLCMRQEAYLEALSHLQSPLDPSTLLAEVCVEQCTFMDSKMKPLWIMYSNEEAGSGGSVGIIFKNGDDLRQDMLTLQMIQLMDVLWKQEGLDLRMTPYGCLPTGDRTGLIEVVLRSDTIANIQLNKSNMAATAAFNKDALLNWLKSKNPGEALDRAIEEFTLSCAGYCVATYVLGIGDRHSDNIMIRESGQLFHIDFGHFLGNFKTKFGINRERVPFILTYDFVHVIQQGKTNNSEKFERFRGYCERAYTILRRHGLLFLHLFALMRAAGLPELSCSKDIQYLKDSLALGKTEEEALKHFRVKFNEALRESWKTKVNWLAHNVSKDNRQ
Sequence of PI3Kδ (p110δ/p85α) (P27986 whole entry partner, species assumed): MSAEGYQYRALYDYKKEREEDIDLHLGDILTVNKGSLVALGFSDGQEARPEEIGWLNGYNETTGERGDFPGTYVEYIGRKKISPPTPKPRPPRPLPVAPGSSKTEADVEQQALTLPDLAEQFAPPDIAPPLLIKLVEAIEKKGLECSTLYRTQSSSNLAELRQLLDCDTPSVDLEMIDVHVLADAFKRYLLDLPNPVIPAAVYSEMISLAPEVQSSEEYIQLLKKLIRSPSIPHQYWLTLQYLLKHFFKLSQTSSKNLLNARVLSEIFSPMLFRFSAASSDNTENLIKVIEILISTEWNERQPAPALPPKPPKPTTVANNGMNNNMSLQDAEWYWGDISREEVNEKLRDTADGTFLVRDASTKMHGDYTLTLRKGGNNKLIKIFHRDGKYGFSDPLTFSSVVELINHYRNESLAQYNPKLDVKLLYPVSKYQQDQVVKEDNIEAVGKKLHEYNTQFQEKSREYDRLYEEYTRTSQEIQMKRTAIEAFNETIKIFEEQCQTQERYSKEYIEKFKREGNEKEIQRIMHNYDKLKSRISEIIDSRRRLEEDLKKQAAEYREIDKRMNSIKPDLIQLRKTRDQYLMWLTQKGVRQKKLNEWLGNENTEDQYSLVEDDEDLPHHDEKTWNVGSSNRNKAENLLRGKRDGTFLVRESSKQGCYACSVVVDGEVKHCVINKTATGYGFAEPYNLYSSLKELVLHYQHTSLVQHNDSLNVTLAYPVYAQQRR

Row | Compound | IC50
1 | Cc1cccc2nc(C(C)Nc3nc(N)nc4[nH]cnc34)c(-c3ccccc3F)c(=O)n12 (stereo not shown) [Example 60, 2-{1-[(2-Amino-9#-purin-6-yl)amino]ethyl}-3-(2-fluorophenyl)-6-methyl-4H-pyrido[1,2-a]pyrimidin-4-one trifluoroacetic acid salt] | < 50 nM
2 | Cc1cccc2nc(C(C)Nc3ncnc4[nH]cnc34)c(-c3cc(F)ccc3F)c(=O)n12 (stereo not shown) [Example 67, 3-(2,5-Difluorophenyl)-6-methyl-2-[1-(9H-purin-6-ylamino)ethyl]-4H-pyrido[1,2-a]pyrimidin-4-one trifluoroacetic acid salt] | < 50 nM
3 | Cc1cccc2nc(C(C)Nc3nc(N)nc4[nH]cnc34)c(-c3ccccc3Cl)c(=O)n12 (stereo not shown) [Example 58, 2-{1-[(2-Amino-9#-purin-6-yl)amino]ethyl}-3-(2-chlorophenyl)-6-methyl-4H-pyrido[1,2-a]pyrimidin-4-one trifluoroacetic acid salt] | < 50 nM
4 | Cc1cccc2nc(C(C)Nc3ncnc4[nH]cnc34)c(-c3ccccc3Cl)c(=O)n12 (stereo not shown) [Example 57, 3-(2-Chlorophenyl)-6-methyl-2-[1-(9H-purin-6-ylamino)ethyl]-4H-pyrido[1,2-a]pyrimidin-4-one trifluoroacetic acid salt] | < 50 nM
5 | CCc1cccc2nc(C(C)Nc3nc(N)nc4[nH]cnc34)c(-c3cc(F)cc(F)c3)c(=O)n12 (stereo not shown) [Example 77, 2-{1-[(2-Amino-9#-purin-6-yl)amino]ethyl}-3-(3,5-difluorophenyl)-6-ethyl-4H-pyrido[1,2-a]pyrimidin-4-one trifluoroacetic acid salt] | 50 to 100 nM
6 | Cc1csc2nc(C(C)Nc3ncnc4[nH]cnc34)c(-c3cncc(F)c3)c(=O)n12 (stereo not shown) [Example 42, 6-(5-fluoropyridin-3-yl)-3-methyl-7-[1-(9H-purin-6-ylamino)ethyl]-5H-[1,3]thiazolo[3,2-a]pyrimidin-5-one trifluoroacetic acid salt] | 100 to 500 nM
7 | Cc1csc2nc(C(C)Nc3nc(N)nc4[nH]cnc34)c(-c3cncc(F)c3)c(=O)n12 (stereo not shown) [Example 38, 7-{1-[(2-amino-9H-purin-6-yl)amino]ethyl}-6-(5-fluoropyridin-3-yl)-3-methyl-5H-[1,3]thiazolo[3,2-a]pyrimidin-5-one trifluoroacetic acid salt] | 50 to 100 nM
8 | Cc1ccc(-c2c(C(C)Nc3ncnc4[nH]cnc34)nc3scc(C)n3c2=O)cc1 (stereo not shown) [Example 31, 3-methyl-6-(4-methylphenyl)-7-[1-(9H-purin-6-ylamino)ethyl]-5H-[1,3]thiazolo[3,2-a]pyrimidin-5-one trifluoroacetic acid salt] | 100 to 500 nM
9 | Cc1csc2nc(C(C)Nc3ncnc4[nH]cnc34)c(-c3cc(F)cc(Cl)c3)c(=O)n12 (stereo not shown) [Example 37, 6-(3-chloro-5-fluorophenyl)-3-methyl-7-[1-(9H-purin-6-ylamino)ethyl]-5H-[1,3]thiazolo[3,2-a]pyrimidin-5-one trifluoroacetic acid salt] | 100 to 500 nM
10 | Cc1csc2nc(C(C)Nc3ncnc4[nH]cnc34)c(-c3cscn3)c(=O)n12 (stereo not shown) [Example 21, 3-methyl-7-[1-(9H-purin-6-ylamino)ethyl]-6-(1,3-thiazol-4-yl)-5H-[1,3]thiazolo[3,2-a]pyrimidin-5-one trifluoroacetic acid salt] | < 50 nM
11 | CC(Nc1nc(N)nc2[nH]cnc12)c1nc2sccn2c(=O)c1-c1cc(F)cc(F)c1 (stereo not shown) [Example 24, 7-{1-[(2-amino-9H-purin-6-yl)amino]ethyl}-6-(3,5-difluorophenyl)-5H-[1,3]thiazolo[3,2-a]pyrimidin-5-one] | > 500 nM
12 | Cc1cccc2nc(C(C)Nc3ncnc4[nH]cnc34)c(-c3ccc(F)c(F)c3)c(=O)n12 (stereo not shown) [Example 68, 3-(3,4-Difluorophenyl)-6-methyl-2-[1-(9H-purin-6-ylamino)ethyl]-4H-pyrido[1,2-a]pyrimidin-4-one trifluoroacetic acid salt] | 100 to 500 nM
13 | Cc1cccc2nc(C(C)Nc3ncnc4[nH]cnc34)c(-c3ccccc3F)c(=O)n12 (stereo not shown) [Example 59, 3-(2-Fluorophenyl)-6-methyl-2-[1-(9H-purin-6-ylamino)ethyl]-4H-pyrido[1,2-a]pyrimidin-4-one trifluoroacetic acid salt] | < 50 nM
14 | Cc1csc2nc(C(C)Nc3nc(N)nc4[nH]cnc34)c(-c3cccc(Cl)c3)c(=O)n12 (stereo not shown) [Example 32, 7-{1-[(2-amino-9H-purin-6-yl)amino]ethyl}-6-(3-chlorophenyl)-3-methyl-5H-[1,3]thiazolo[3,2-a]pyrimidin-5-one trifluoroacetic acid salt] | 50 to 100 nM

Next, values leading:

Row | IC50 | Compound
15 | 50 to 100 nM | Cc1csc2nc(C(C)Nc3ncnc4[nH]cnc34)c(-c3ccc(F)cc3)c(=O)n12 (stereo not shown) [Example 22, 6-(4-fluorophenyl)-3-methyl-7-[1-(9H-purin-6-ylamino)ethyl]-5H-[1,3]thiazolo[3,2-a]pyrimidin-5-one trifluoroacetic acid salt]
16 | 50 to 100 nM | Cc1csc2nc(C(C)Nc3ncnc4[nH]cnc34)c(-c3cccc(F)c3F)c(=O)n12 (stereo not shown) [Example 41, 6-(2,3-difluorophenyl)-3-methyl-7-[1-(9H-purin-6-ylamino)ethyl]-5H-[1,3]thiazolo[3,2-a]pyrimidin-5-one trifluoroacetic acid salt]
17 | > 500 nM | CC(Nc1ncnc2[nH]cnc12)c1nc2sccn2c(=O)c1-c1cc(F)cc(F)c1 (stereo not shown) [Example 25, 6-(3,5-difluorophenyl)-7-[1-(9H-purin-6-ylamino)ethyl]-5H-[1,3]thiazolo[3,2-a]pyrimidin-5-one]
18 | 100 to 500 nM | Cc1cccc2nc(C(C)Nc3ncnc4[nH]cnc34)c(-c3cccc(C#N)c3)c(=O)n12 (stereo not shown) [Example 83, 3-{6-Methyl-4-oxo-2-[1-(9H-purin-6-ylamino)ethyl]-4H-pyrido[1,2-a]pyrimidin-3-yl}benzonitrile trifluoroacetic acid salt]
19 | 100 to 500 nM | Cc1csc2nc(C(C)Nc3ncnc4[nH]ccc34)c(-c3cc(F)cc(F)c3)c(=O)n12 (stereo not shown) [Example 17, 6-(3,5-difluorophenyl)-3-methyl-7-[1-(7H-pyrrolo[2,3-d]pyrimidin-4-ylamino)ethyl]-5H-[1,3]thiazolo[3,2-a]pyrimidin-5-one]
20 | > 500 nM | CC(Nc1ncnc2[nH]cnc12)c1nc2ccccn2c(=O)c1-c1cc(F)cc(F)c1 (stereo not shown) [Example 79, 3-(3,5-Difluorophenyl)-2-[1-(9H-purin-6-ylamino)ethyl]-4H-pyrido[1,2-a]pyrimidin-4-one trifluoroacetic acid salt]
21 | 100 to 500 nM | Cc1csc2nc([C@H](C)Nc3nc(O)nc4[nH]cnc34)c(-c3cccc(F)c3)c(=O)n12 [Example 47, 6-(3-Fluorophenyl)-7-{(1S)-1-[(2-hydroxy-9H-purin-6-yl)amino]ethyl}-3-methyl-5H-[1,3]thiazolo[3,2-a]pyrimidin-5-one]
22 | 50 to 100 nM | CC(Nc1ncnc2[nH]cnc12)c1nc2scc(C(F)(F)F)n2c(=O)c1-c1cccc(F)c1 (stereo not shown) [Example 48, 6-(3-Fluorophenyl)-7-[1-(9H-purin-6-ylamino)ethyl]-3-(trifluoromethyl)-5H-[1,3]thiazolo[3,2-a]pyrimidin-5-one]
23 | > 500 nM | Cc1cc(-c2c(C(C)Nc3nc(N)nc4[nH]cnc34)nc3cccc(C)n3c2=O)cnc1Cl (stereo not shown) [Example 82, 2-{1-[(2-Amino-9H-purin-6-yl)amino]ethyl}-3-(6-chloro-5-methylpyridin-3-yl)-6-methyl-4H-pyrido[1,2-a]pyrimidin-4-one trifluoroacetic acid salt]
24 | 100 to 500 nM | Cc1csc2nc(C(C)Nc3nc(F)nc4[nH]cnc34)c(-c3cc(F)cc(F)c3)c(=O)n12 (stereo not shown) [Example 18, 6-(3,5-difluorophenyl)-7-{1-[(2-fluoro-9H-purin-6-yl)amino]ethyl}-3-methyl-5H-[1,3]thiazolo[3,2-a]pyrimidin-5-one]
25 | < 50 nM | Cc1cccc2nc(C(C)Nc3ncnc4[nH]cnc34)c(-c3cccc(F)c3F)c(=O)n12 (stereo not shown) [Example 66, 3-(2,3-Difluorophenyl)-6-methyl-2-[1-(9H-purin-6-ylamino)ethyl]-4H-pyrido[1,2-a]pyrimidin-4-one trifluoroacetic acid salt]
26 | 100 to 500 nM | Cc1cccc2nc(C(C)Nc3ncnc4[nH]cnc34)c(-c3cc(F)cc(F)c3)c(=O)n12 (stereo not shown) [Example 69, 3-(3,5-Difluorophenyl)-6-methyl-2-[1-(9H-purin-6-ylamino)ethyl]-4H-pyrido[1,2-a]pyrimidin-4-one trifluoroacetic acid salt]
27 | < 50 nM | Cc1csc2nc(C(C)Nc3nc(N)nc4[nH]cnc34)c(-c3cccc(F)c3F)c(=O)n12 (stereo not shown) [Example 34, 7-{1-[(2-amino-9H-purin-6-yl)amino]ethyl}-6-(2,3-difluorophenyl)-3-methyl-5H-[1,3]thiazolo[3,2-a]pyrimidin-5-one trifluoroacetic acid salt]
28 | < 50 nM | Cc1cccc2nc(C(C)Nc3nc(N)nc4[nH]cnc34)c(-c3cccc(Cl)c3)c(=O)n12 (stereo not shown) [Example 54, 2-{1-[(2-Amino-9H-purin-6-yl)amino]ethyl}-3-(3-chlorophenyl)-6-methyl-4H-pyrido[1,2-a]pyrimidin-4-one trifluoroacetic acid salt]
